# Experimental data reported in patent US10329310B2, “Arginase inhibitors and their therapeutic applications” (ONCOARENDI THERAPEUTICS S.A., priority 2014, dated 2019).
# Counter-ions that a name gives are not always drawn.
# Biological target: recombinant human arginases 1 and 2
# Test: Human Arginase Activity Assay (urea measurement, colorimetric)
# Assay type: biochemical
# Settings: 37° C., 60 min, isoform not given, read-out: Activity Class (IC50)
# Description: Human Arginase Activity Assay
# The assay was run in the 96-well plate format, each reaction in the total volume of 100 ul. The assay is based on urea measurement, which is a product of L-arginine enzymatic degradation. (Baggio et al. J. Pharmacol. Exp. Ther. 1999, 290, 1409-1416). The color product is developed by adding a mixture of reagent A (10 mM o-phthaldialdehyde and 0.4% polyoxyethylene (23) lauryl ether (w/v) in 1.8 M sulfuric acid) and reagent B (1.3 mM primaquine diphosphate, 0.4% polyoxyethylene (23) lauryl ether (w/v), and 130 mM boric acid in 3.6 M sulfuric acid) in equal proportions. The absorbance for each well was measured at 530 nm and was referred to the concentration curve determined using urea as a standard.
# Briefly, to each well of a 96-well microtiter plate 40 μL of enzyme, 50 μL of the test compound solution, and 10 μL of enzyme substrate solution (L-arginine+manganese chloride) was added. For positive control, only the enzyme and substrate was added, the negative controls contained only manganese chloride. After incubating the microtiter plate at 37° C. for 60 min, 150 μL of a urea reagent was added to each well to stop the reaction. After quenching the reaction mixture, the plate was left for 20 min at room temperature in order to allow color development. Absorbance was measured with Envision® Reader (Perkin-Elmer) (λ=530 nm).
# The IC50 values were calculated using GraphPad Prism and divided into the following classes: […]
row,Compound,IC50 [µM]
1,"NC(=O)NCC(N)(CCCCB(O)O)C(=O)O (stereo not drawn) [Example 3, 2-Amino-6-borono-2-(ureidomethyl)hexanoic acid hydrochloride]",10 to 100
2,"NC(CCCCB(O)O)(CNS(=O)(=O)NCc1ccccc1)C(=O)O (stereo not drawn) [Example 5, hydrochloride]",1 to 10
3,"CNC(CCCCB(O)O)(CNC(=N)N)C(=O)O (stereo not drawn) [Example 9, 6-Borono-2-(guanidinomethyl)-2-(methylamino)hexanoic acid dihydrochloride]",0.001 to 0.1
4,"NC(CCCCB(O)O)(C(=O)O)C1CCN(S(N)(=O)=O)CC1 (stereo not drawn) [Example 14, 2-Amino-6-borono-2-(1-sulfamoylpiperidin-4-yl)hexanoic acid hydrochloride]",1 to 10
5,"CN(C)S(=O)(=O)N1CCC(C(N)(CCCCB(O)O)C(=O)O)CC1 (stereo not drawn) [Example 15, 2-Amino-6-borono-2-(1-(N,N-dimethylsulfamoyl)piperidin-4-yl)hexanoic acid hydrochloride]",10 to 100
6,"NC(CCCCB(O)O)(C(=O)O)C1CCN(S(=O)(=O)NCc2ccc(C(F)(F)F)cc2)CC1 (stereo not drawn) [Example 16, 2-Amino-6-borono-2-(1-(N-(4-(trifluoromethyl)benzyl)sulfamoyl)piperidin-4-yl)hexanoic acid hydrochloride]",1 to 10

# Further lines, results first:
row,IC50 [µM],Compound
1,0.1 to 1,"CN(C)S(=O)(=O)NCC(N)(CCCCB(O)O)C(=O)O (stereo not drawn) [Example 4, 2-Amino-6-borono-2-(((N,N-dimethylsulfamoyl)amino)methyl)hexanoic acid hydrochloride]"
2,0.1 to 1,"CNS(=O)(=O)NCC(N)(CCCCB(O)O)C(=O)O (stereo not drawn) [Example 6, hydrochloride]"
3,0.1 to 1,"CNC(=N)NCC(N)(CCCCB(O)O)C(=O)O (stereo not drawn) [Example 7, 2-Amino-6-borono-2-((3-methylguanidino)methyl)hexanoic acid hydrochloride]"
4,0.1 to 1,"CNC(CCCCB(O)O)(CNS(N)(=O)=O)C(=O)O (stereo not drawn) [Example 8, 6-Borono-2-(methylamino)-2-((sulfamoylamino)methyl)hexanoic acid hydrochloride]"
5,1 to 10,"NC(CCCCB(O)O)(CCS(N)(=O)=O)C(=O)O (stereo not drawn) [Example 10, 2-Amino-6-borono-2-(2-sulfamoylethyl)hexanoic acid hydrochloride]"
6,1 to 10,"NC(CCCCB(O)O)(CCNS(N)(=O)=O)C(=O)O (stereo not drawn) [Example 12, hydrochloride]"
